Values quoted from earlier work, collected in patent publication US20070254006A1, “Medical Devices and Coatings with Non-Leaching Antimicrobial Peptides” (Massachusetts Institute of Technology, priority 2006, published 2007).

Tests used:
avidin and streptavidin = conditions: interaction with avidin and streptavidin
Staphylococcus aureus = conditions: Dacron graft soaked in peptide solution before implanting in a rat, bacterial challenge

Compound: O=C(O)CCCC[C@@H]1SC[C@@H]2NC(=O)N[C@@H]21 [Biotin]
- Ka (avidin and streptavidin): 10^15 M^−1

Compound: dermaseptin
- incidence of device colonization and infection (Staphylococcus aureus): reduces the incidence of device colonization and infection
